These results are taken from US20240172752A1, “7-OXA-3,4-DIAZABICYCLO[4.1.0]HEPT-4-EN-2-ONE COMPOUND AND HERBICIDE” (Nippon Soda Co., Ltd., priority 2021, published 2024).

One data set deals with Amaranthus blitum. As to the kind of experiment: Soil treatment herbicidal test, weed killing rate, Amaranthus blitum. Conditions: 672 h, 250 g per hectare, after 4 weeks, read-out: herbicidal activity (weed killing rate) with respect to Amaranthus blitum. In kind it is in vivo. The protocol: (§1) POA allylphenyl ether (4.1 parts by weight), POE-POP glycol (1 part by weight), POE sorbitan laurate (0.8 parts by weight), glycerin (2.6 parts by weight), dimethylformamide (65.9 parts by weight), N-methylpyrrolidone (5.1 parts by weight), cyclohexanone (15.4 parts by weight), and aromatic hydrocarbons (5.1 parts by weight) were mixed and dissolved to prepare an emulsion. The compound of the present invention (4 mg) was dissolved in this emulsion (100 μL) to prepare a test emulsion. POA means “polyoxyalkylene”, POE means “polyoxyethylene”, and POP means “polyoxypropylene”.
(§2) A 70 cm^2 pot was filled with soil, and seeds of Digitaria ciliaris, Setaria faberi, Abutilon theophrasti and Amaranthus blitum were sown into the surface layer which was covered lightly with soil. The next day, the above test emulsion was diluted so as to achieve a predetermined amount of active ingredient and sprayed on the soil surface with a small sprayer at a spray water volume of 2,860 L per hectare.
(§3) After 4 weeks, the above ground weights of weeds in the untreated and treated areas were measured for each weed, and the weed killing rate was calculated by the following calculation formula.
(§4) Weed killing rate (%)=[(above ground weight of weeds in untreated area)−(above ground weight of weeds in treated area)/(above ground weight of weeds in untreated area)]×100

The subject of another data set is Abutilon theophrasti. As to the kind of experiment: Soil treatment herbicidal test, weed killing rate, Abutilon theophrasti. The format is in vivo. Conditions: 672 h, 250 g per hectare, after 4 weeks, read-out: herbicidal activity (weed killing rate) with respect to Abutilon theophrasti. The protocol: as §1, §2, §3, §4

Take `COC12OC1(c1ccc(C(F)(F)F)nc1S(=O)(=O)N1CCOCC1)C=NN(C)C2=O` (centres unmarked) [Compound A-4]: the pest or weed control at 250 g/ha with Amaranthus blitum and in the data set on Abutilon theophrasti was at least 80% in each case.

On to `COCCOCc1nc(C(F)(F)F)ccc1C12C=NN(C)C(=O)C1(OC)O2` (centres unmarked) [Compound A-5], for which the pest or weed control at 250 g/ha in the data set on Amaranthus blitum and in the data set on Abutilon theophrasti was at least 80% throughout.

The term melting point denotes the temperature, or range, at which the solid turns liquid. Take `COC12OC1(c1ccc(C(F)(F)F)c3ncccc13)C=NN(C)C2=O` (centres unmarked) [Compound A-24]: the melting point is 171 to 172 °C. In addition, the pest or weed control at 250 g/ha in the data set with Amaranthus blitum was at least 80%. Also, in the data set on Abutilon theophrasti, the pest or weed control at 250 g/ha was at least 80%.

On to `COC12OC1(c1cc3cccnc3c(Cl)c1C(F)(F)F)C=NN(C)C2=O` (centres unmarked) [Compound A-9], for which the melting point is 238 to 239 °C.

With `COC12OC1(c1cc3ccncc3n(-c3ccc(F)cc3)c1=O)C=NN(C)C2=O` (centres unmarked) [Compound A-18], the melting point was in the range of 175 to 179 °C.

Turning to `COC12OC1(c1cc(C(F)(F)F)nn1CS(C)(=O)=O)C=NN(C)C2=O` (centres unmarked) [Compound A-25], the pest or weed control at 250 g/ha in the data set on Amaranthus blitum and with Abutilon theophrasti was at least 80% each time.

With `COC12OC1(c1ncc(Cl)cc1S(C)(=O)=O)C=NN(C)C2=O` (centres unmarked) [Compound A-2], in the data set on Abutilon theophrasti, the pest or weed control at 250 g/ha was at least 80%.

The compound `COC12OC1(c1cc3cccnc3nc1C(F)(F)F)C=NN(C)C2=O` (centres unmarked) [Compound A-7] yielded a melting point of 203 to 210 °C. In the data set on Amaranthus blitum, the pest or weed control at 250 g/ha was at least 80%. Also, the pest or weed control at 250 g/ha in the data set on Abutilon theophrasti was at least 80%.

Take `COC12OC1(c1cnc(C(F)(F)F)cc1S(C)(=O)=O)C=NN(C)C2=O` (centres unmarked) [Compound A-8]: the pest or weed control at 250 g/ha with Amaranthus blitum and in the data set with Abutilon theophrasti was at least 80% throughout.

For `COC12OC1(c1ccc(C(F)(F)F)n(C)c1=O)C=NN(C)C2=O` (centres unmarked) [Compound A-11], the melting point is 128 to 130 °C.

As for `COC12OC1(c1cn(C)c(=O)n(-c3ccc(F)cc3)c1=O)C=NN(C)C2=O` (centres unmarked) [Compound A-17], the melting point lay within 191 to 194 °C.

On to `COC12OC1(c1ncc(C(F)(F)F)cc1S(C)(=O)=O)C=NN(C)C2=O` (centres unmarked) [Compound A-6], for which the pest or weed control at 250 g/ha in the data set with Amaranthus blitum and in the data set on Abutilon theophrasti was at least 80% throughout.

`COC12OC1(c1nn(C)c(=O)n(-c3ccc(F)cc3)c1=O)C=NN(C)C2=O` (centres unmarked) [Compound A-10] had a melting point of 180 to 182 °C.

With `COC12OC1(c1ccc(C(F)(F)F)nc1S(C)(=O)=O)C=NN(C)C2=O` (centres unmarked) [Compound A-1], the pest or weed control at 250 g/ha with Amaranthus blitum and with Abutilon theophrasti was at least 80% each time.

In the case of `COC12OC1(c1nn(C)c(=O)c(C)c1Cl)C=NN(C)C2=O` (centres unmarked) [Compound A-23], the melting point is 153 to 155 °C. Moreover, in the data set with Abutilon theophrasti, the pest or weed control at 250 g/ha was at least 80%.
